Measured values reported in ChEMBL document CHEMBL1201862, “PubChem BioAssay data set” (2004).
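How tested: cells in 96-well plates exposed to compound for 48 hours at five concentrations. GI50 is the concentration that inhibits growth by half.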 Calls of active or inactive are those of the source. No stated cut-off is given here; in the data, active = GI50 up to about 1.1 µM and inactive = higher.

Experiments:
Experiment in all cases: NCI anticancer screen, dose series, 48 h
[1] = test system: UO-31
[2] = test system: COLO 205
[3] = test system: HCT-116
[4] = test system: SN12C
[5] = test system: DU-145
[6] = test system: MDA-MB-231
[7] = test system: UACC-257
[8] = test system: UACC-62
[9] = test system: SF-539
[10] = test system: OVCAR-5
[11] = test system: LOX IMVI
[12] = test system: SF-268
[13] = test system: SK-MEL-5
[14] = test system: HOP-92
[15] = test system: MDA-N
[16] = test system: NCI/ADR-RES
[17] = test system: 786-0
[18] = test system: CAKI-1
[19] = test system: RXF 393

Measured: GI50

COc1ccc(C(=O)N2CCN(c3ccc4[nH]c(=O)oc4c3)CC2)cc1
inactive: [1] > 100 µM | [2] > 100 µM | [3] > 100 µM | [4] > 100 µM | [5] > 100 µM | [6] > 100 µM | [7] > 100 µM | [8] 99.3 µM | [9] > 100 µM | [10] > 100 µM | [11] > 100 µM | [12] > 100 µM | [13] > 100 µM | [14] > 100 µM | [15] > 100 µM | [16] > 100 µM | [17] > 100 µM

CC(=O)OC1=C(CC(C)(C)C)C(=O)c2ccccc2C1=O
inactive: [18] 48.4 µM | [1] 33.4 µM | [2] 23.6 µM | [3] 25.8 µM | [19] 28.3 µM | [5] 46.7 µM | [6] 87.7 µM | [7] 38.5 µM | [8] 32.1 µM | [9] 26.5 µM | [11] 47.5 µM | [12] 21.6 µM | [13] 15.9 µM | [16] 18.1 µM | [17] 39.6 µM

COc1ccc2nc3ccc(OC)cc3c([S+]([O-])Cc3ccccc3)c2c1 (stereo not drawn)
inactive: [18] 12.8 µM | [1] 6.87 µM | [2] 7.26 µM | [3] 2.45 µM | [19] 13.6 µM | [4] 7.62 µM | [5] 2.07 µM | [6] 16 µM | [7] 7.8 µM | [8] 14.8 µM | [9] 7.73 µM | [10] 15.7 µM | [11] 2.07 µM | [12] 16.9 µM | [13] 16.8 µM | [14] 4.76 µM | [16] 20.3 µM | [17] 2.21 µM

CN(C)CCNC1=CC(=O)c2nc3ccccc3c3ccnc1c23
inactive: [18] 4.02 µM | [1] 3.89 µM | [2] 2.75 µM | [3] 2.88 µM | [4] 6.49 µM | [5] 8.2 µM | [6] 3.63 µM | [7] 9.62 µM | [8] 5.31 µM | [9] 3.98 µM | [10] 5.74 µM | [11] 2.04 µM | [12] 4.53 µM | [14] 11.7 µM | [15] 7.78 µM | [16] 4.13 µM | [17] 2.81 µM

c1csc(-c2cscc2-c2cccs2)c1
inactive: [18] > 100 µM | [1] 58.2 µM | [2] 50.8 µM | [3] 29.8 µM | [19] 27.6 µM | [4] > 100 µM | [5] 1.31 µM | [6] > 100 µM | [7] 95.1 µM | [8] 72.3 µM | [9] 20.3 µM | [10] 24.1 µM | [11] 43.2 µM | [12] > 100 µM | [13] 46.8 µM | [14] 78.5 µM | [16] 42.9 µM | [17] 43.6 µM

CCOC(=O)C1C(c2ccc3c(c2)OCO3)c2c(n[nH]c2O)CC1(O)OCC (stereo not drawn)
inactive: [18] > 100 µM | [1] > 100 µM | [2] > 100 µM | [3] > 100 µM | [4] > 100 µM | [5] > 100 µM | [6] > 100 µM | [7] > 100 µM | [8] > 100 µM | [9] > 100 µM | [10] > 100 µM | [11] > 100 µM | [12] > 100 µM | [13] > 100 µM | [14] > 100 µM | [16] > 100 µM | [17] > 100 µM

O[C@H]1[C@H](O)[C@H](O)CN2CCC[C@@H](O)[C@H]12
inactive: [18] > 100 µM | [1] > 100 µM | [2] > 100 µM | [3] > 100 µM | [19] > 100 µM | [4] > 100 µM | [5] > 100 µM | [6] > 100 µM | [7] > 100 µM | [8] > 100 µM | [9] > 100 µM | [10] > 100 µM | [11] > 100 µM | [12] > 100 µM | [13] > 100 µM | [14] > 100 µM | [16] > 100 µM | [17] > 100 µM

COc1cc(NC(C)=O)ccc1C(=O)N/N=C/c1ccc(Cl)cc1Cl
inactive: [18] 39.6 µM | [1] 43.1 µM | [2] > 100 µM | [3] 80.5 µM | [19] 20.7 µM | [4] 22.4 µM | [5] 26.3 µM | [7] 27 µM | [8] 31.6 µM | [9] 87.7 µM | [10] 46.3 µM | [11] 69.2 µM | [12] 32.6 µM | [13] 77.3 µM | [14] 35.4 µM | [15] 23.6 µM | [16] > 100 µM | [17] 24.9 µM
